Values joined by “and” are separate entries in the source; they are usually repeats but may differ in a detail not shown here. Equal values may be shown once.
Columns and labels:
[1] = test system: women with locally advanced or metastatic ER+, HER2-negative breast cancer; test: Phase 1/2 study of Compound 1 QD PO: safety (DLT, adverse events); format: in vivo, human
Experimental: (§1) Compound 1 was tested in a first-in-human, Phase 1/2 study in women with locally advanced or metastatic ER+, HER2-negative breast cancer. In this multicenter study, women with locally advanced or metastatic ER+, HER2− breast cancer were treated with Compound 1 administered QD, PO over a 28-day cycle after progression on at least 1 hormonal therapy and at least 1 additional therapy/regimen.
(§2) The primary objective of the Phase 1 was to determine the MTD and RP2D in pretreated subjects with ER+, HER2−metastatic breast cancer. Secondary objectives included safety and antitumor activity. The primary objective of the Phase 2 was to estimate the efficacy of this agent in terms of objective response rate (ORR), clinical benefit rate (CBR), and progression-free survival (PFS). Secondary objectives included safety. The trial was designed to exclude a lower limit of ORR of 5% at one-sided level of significance of 0.05 and a power of 90%.
The Phase 1 part evaluated once daily doses from 100 to 600 mg. […] Consequently, the dose of 450 mg was selected as the RP2D.

[2] = test system: locally advanced or metastatic ER+, HER2-negative breast cancer; test: Phase 1/2 study of Compound 1 QD PO: antitumor efficacy (best overall response, CBR, PFS); format: in vivo, human; conditions: for Confirmed partial responses / Clinical benefit rate (≥23 weeks) / Stable disease (SD) rate: response-evaluable subjects; for mPFS: started on 450 mg; for Median PFS: full analysis set; for Progression free survival, median (95% CI): FIG. 4, Example 3; for Progression free survival, median (95%): FIG. 3, Example 3
Experimental: as §1, §2
Over 30 months, 130 patients were enrolled; 47 in the Phase 1 part and 83 in the Phase 2 part of the trial. A total of 105 subjects, including 73 subjects on 450 mg were response-evaluable.
Experiments conducted subsequent to those reported in Example 1 were directed to identify the parameters driving the activity of Compound 1 in the trial population. Two parameters were of particular interest: 1) PgR status, and 2) ESR1 mutant type and allele frequency. PFS was used in these analyses because it is a continuous variable. […] The effect of baseline circulating ESR1, of particular ESR1 mutants and their allele frequency was unknown.
The effect of PgR positivity and the detection prior to treatment of ESR1 mutations Y537S and D538G on median PFS was then investigated using the Kaplan-Meier method. The effect of ESR1 clonality was also investigated since the presence of simultaneous clones of ESR1 mutations likely indicates very advanced or complex disease. Of note, the allele frequencies of the different ESR1 mutants were not identical, indicating the presence of multiple clones in a tumor, rather than multiple mutations in the same tumor ESR1 gene. For the purpose of these analyses, clonal Y537S was defined as ESR1 Y537S mutation detected in a pre-treatment whole blood sample at a mutant allele frequency (MAF)≥0.5% with a MAF for D538G<0.5%. Conversely, clonal D538G was defined as ESR1 D538G mutation detected in a pre-treatment whole blood sample at a MAF≥0.5% with a MAF for Y537S<0.5%.
Following data analysis described above, patients remained in the Phase 2 study reported in Example 1, and clinical data collection continued. The primary objective of this study was to estimate the efficacy of Compound 1 in terms of best overall response rate (ORR), duration of response (DoR), clinical benefit rate, and progression-free survival (PFS) in all subjects and in those with and without ERα mutation (ERαMUT).
83 patients were treated with 450 mg in the Phase 2 study of Example 1. Additionally, 11 patients who were treated with 450 mg in the Phase 1 part of the trial (also discussed in Example 1) have been grouped with these 83 Phase 2 patients for discussion in this example. […] Patients were heavily pretreated, and 85% of the patients received prior CDK4/6 inhibitors.

[3] = test system: PDX breast cancer models, including those with mutated ESR1; conditions: multiple PDX breast cancer models; cited from earlier work
[4] = 450 mg, N = 72, response-evaluable set, Example 3
[5] = 450 mg, N = 73, response evaluable set, Example 1
[6] = 10 patients with clonal ESR1 Y537S, 450 mg, Example 3
[7] = Clonal D538G (N = 17), 450 mg, Example 3
[8] = Clonal Y537S (N = 10), 450 mg, Example 3
[9] = Clonal Y537S or Clonal D538G (N = 27), 450 mg, Example 3
[10] = Polyclonal Y537S and D538G (N = 2), 450 mg, Example 3
[11] = Y537S and D538G Negatives (N = 43), 450 mg, Example 3
[12] = all doses, N = 105, response evaluable set, Example 1

CN(C)C(=O)/C=C/CNCCOc1ccc(/C(=C(/CC(F)(F)F)c2ccccc2)c2ccc3[nH]nc(F)c3c2)cn1 [Compound 1]
Dose-limiting toxicities (DLTs) observed ([1]; 600 mg cohort, in 2 of 7 subjects (Grade 3 fatigue and Grade 3 drug eruption)): 2 DLTs
Dose-limiting toxicities (DLTs) ([1]; Phase 1, once daily doses up to 450 mg): No dose-limiting toxicities
Grade 1 sinus bradycardia (asymptomatic) ([1]; in vivo): 35%
Grade 2 QTcF prolongation ([1]; in vivo): 2 subjects
Grade 2 sinus bradycardia (symptomatic, no intervention needed) ([1]; in vivo): 4%
Grade 3 QTcF prolongation ([1]; in vivo): 3 subjects
Treatment-related deaths ([1]; in vivo): no treatment-related deaths
RP2D (recommended phase 2 dose) ([1]; once daily, PO): 450 mg
Grade 4 AE ([1]; serum bilirubin, urinary tract obstruction, hyponatremia, all considered related to disease progression): Three
Grade 2 or higher adverse event: AST increase ([1]; subjects, all doses): 11%
Grade 2 or higher adverse event: anemia ([1]; subjects, all doses): 20%
Grade 2 or higher adverse event: diarrhea ([1]; subjects, all doses): 11%
Grade 2 or higher adverse event: fatigue ([1]; subjects, all doses): 16%
Grade 2 or higher adverse event: nausea ([1]; subjects, all doses): 14%
Confirmed partial responses ([2]; 450 mg dose, 90% confidence limits 8.7%-23.7): 15%
Median PFS (Kaplan-Meier) ([2]; 450 mg starters with clonal ESR1 Y537S or clonal D538G mutations, Example 2): 5.5 months
Median time to response (min, max) ([2]; 450 mg, N = 72, Example 3): 2.7 (1.6, 5.5) mo
Median duration of response (min, max) ([2]; 450 mg, N = 72, Example 3, descriptive median): 7.5 (3.5, 16.6) mo
Best overall response: Complete response [2, 4]: 0 n (%)
Best overall response: Confirmed partial response [2, 4]: 12 (17) n (%)
Best overall response: Not evaluable [2, 4]: 2 (3) n (%)
Best overall response: Progressive disease [2, 4]: 27 (38) n (%)
Best overall response: Stable disease [2, 4]: 31 (43) n (%)
Clinical benefit rate (CR + PR + SD ≥ 23 weeks) [2, 4]: 29 (40) n (%)
ORR (95% confidence interval) [2, 4]: 17 (9, 27) %
Best overall response: Complete response (CR) [2, 5]: 0 N (%)
Best overall response: Confirmed partial response (PR) [2, 5]: 11 (15) N (%)
Best overall response: Not evaluable [2, 5]: 3 (4) N (%)
Best overall response: Progressive disease (PD) [2, 5]: 26 (36) N (%)
Clinical benefit rate (CR + PR + SD lasting for ≥23 weeks) [2, 5]: 24 (33) N (%)
Clinical benefit rate (≥23 weeks) ([2]; 450 mg): 33%
Stable disease (SD) rate ([2]; 450 mg): 45%
Partial responses [2, 6]: 30%
Stable disease [2, 6]: 40%
mPFS ([2]; All subjects, PgR negative, N=34): 2.1 months
mPFS ([2]; All subjects, PgR positive, N=38): 5.5 months
Clinical benefit rate [2, 7]: 6 (35) n (%)
Complete response [2, 7]: 0 n (%)
Confirmed partial response [2, 7]: 0 n (%)
Not evaluable [2, 7]: 0 n (%)
Progressive disease [2, 7]: 7 (41) n (%)
Stable disease [2, 7]: 10 (59) n (%)
Median PFS ([2]; Clonal D538G, 450 mg, Example 3): 5.4 mo
Progression free survival, median (95% CI) ([2]; Clonal D538G, N=19, 13 events): 5.4 (1.7, 7.2) months
mPFS ([2]; Clonal D538G, PgR negative, N=3): 1.7 months
mPFS ([2]; Clonal D538G, PgR positive (≥1%), N=10): 4.5 months
Clinical benefit rate [2, 8]: 6 (60) n (%)
Complete response [2, 8]: 0 n (%)
Confirmed partial response [2, 8]: 3 (30) n (%)
Not evaluable [2, 8]: 0 n (%)
Progressive disease [2, 8]: 3 (30) n (%)
Stable disease [2, 8]: 4 (40) n (%)
mPFS ([2]; Clonal Y537S + Clonal D538G (combined data), PgR negative, N=3): 1.7 months
mPFS ([2]; Clonal Y537S + Clonal D538G (combined data), PgR positive, N=16): 7.2 months
Clinical benefit rate [2, 9]: 12 (44) n (%)
Complete response [2, 9]: 0 n (%)
Confirmed partial response [2, 9]: 3 (11) n (%)
Not evaluable [2, 9]: 0 n (%)
Progressive disease [2, 9]: 10 (37) n (%)
Stable disease [2, 9]: 14 (52) n (%)
Median PFS ([2]; Clonal Y537S or Clonal D538G, 450 mg, Example 3): 5.4 mo
Median PFS ([2]; Clonal Y537S, 450 mg, Example 3): 7.3 mo
Progression free survival, median (95% CI) ([2]; Clonal Y537S, N=10, 8 events): 7.3 (0.8, 11.2) months and 7.3 months
mPFS ([2]; Clonal Y537S, PgR positive (≥1%), N=6): 13.0 months
Progression free survival, median (95%) ([2]; PgR Negative (≤1% positive cells), N=34, 20 events): 2.1 (1.7, 7.4) months
Progression free survival, median (95%) ([2]; PgR Positive (≥1% positive cells), N=38, 24 events): 5.4 (2.0, 8.8) months
Clinical benefit rate [2, 10]: 1 (50) n (%)
Complete response [2, 10]: 0 n (%)
Confirmed partial response [2, 10]: 0 n (%)
Not evaluable [2, 10]: 0 n (%)
Progressive disease [2, 10]: 1 (50) n (%)
Stable disease [2, 10]: 1 (50) n (%)
Median PFS ([2]; Polyclonal Y537S and D538G, 450 mg, Example 3): 3.5 mo
Progression free survival, median (95% CI) ([2]; Polyclonal Y537S and D538G, N=4, 3 events): 3.5 (1.7, 5.4) months
mPFS ([2]; Polyclonal, PgR positive, N=3): 2.6 months
Clinical benefit rate [2, 11]: 16 (37) n (%)
Complete response [2, 11]: 0 n (%)
Confirmed partial response [2, 11]: 9 (21) n (%)
Not evaluable [2, 11]: 2 (5) n (%)
Progressive disease [2, 11]: 16 (37) n (%)
Stable disease [2, 11]: 16 (37) n (%)
Median PFS ([2]; Y537S and D538G Negatives, 450 mg, Example 3): 3.8 mo
Progression free survival, median (95% CI) ([2]; Y537S and D538G negatives, N=61, 33 events): 3.8 (2.0, 7.3) months
mPFS ([2]; Y537S/D538G absent, PgR negative, N=31): 2.1 months
mPFS ([2]; Y537S/D538G absent, PgR positive, N=19): 3.8 months
Median progression free survival ([2]; all 94 patients treated with 450 mg, Example 3): 5.1 months
Best overall response: Complete response (CR) [2, 12]: 0 N (%)
Best overall response: Confirmed partial response (PR) [2, 12]: 13 (12) N (%)
Best overall response: Not evaluable [2, 12]: 7 (7) N (%)
Best overall response: Progressive disease (PD) [2, 12]: 37 (35) N (%)
Clinical benefit rate (CR + PR + SD lasting for ≥23 weeks) [2, 12]: 36 (34) N (%)
Clinical benefit rate (≥23 weeks) ([2]; all doses): 34%
Stable disease (SD) rate ([2]; all doses): 46%
Confirmed partial responses ([2]; all doses, 90% confidence limits 7.5%-19%): 12%
Anti-tumor activity (conclusion) ([2]; monotherapy, once daily 450 mg, heavily pretreated ER+, HER2−, metastatic breast cancer patients): demonstrated anti-tumor activity
Median PFS (Kaplan-Meier) ([2]; subjects who started at the 450 mg dose, 95% CI 3.2-6.2, Examples 1 and 2): 3.8 months
Antitumor activity [3]: significant antitumor activity

— patent US20230404987A1, “METHOD OF TREATING BREAST CANCER” (Eisai R&D Management Co., Ltd., priority 2020, published 2023)
